Measurements as given in patent US20040116420A1 (priority 2001, published 2004).

Legend:
[1] = target: T1, HSV-1 protease (Human herpesvirus 1, UniProt P10210); experiment: Enzymatic assay for HSV-1 protease (assembly) inhibitor, fluorescence polarization; assay type: biochemical; conditions: read-out: HSV-1 Enzyme inhibition IC50
T1 construct: 6xHis (N); made in house; host or cells: baculovirus expression system
Procedure, shortened: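 Fluorescence polarization read-out: after avidin stop, cleavage of a biotinylated DTAF-labelled release-site peptide by recombinant N-His6 HSV-1 protease was compared with no-inhibitor wells. Enzyme and compound were preincubated 30 min, then substrate reacted 60 min, all at room temperature, pH 7.4 citrate buffer with TCEP.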

[2] = system: HSV-1; experiment: Antiviral activity, HSV-1 in Vero cells, plaque method; assay type: cell-based; conditions: Human alphaherpesvirus 1, 20 hours, 90% inhibition of plaque formation
Procedure, shortened: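 This is a virus-yield read-out. The culture medium was frozen at −80° C and thawed, and the plaques it formed were counted. It came from Vero monolayers infected with 50,000 pfu HSV-1 and then exposed to the compound for 20 h at 37° C. EC90 is the concentration inhibiting 90% of plaque formation relative to the untreated infected control.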

[3] = system: Vero cells; experiment: Cytotoxicity, Vero cells, Alamar Blue; assay type: cell-based; conditions: 25 μM, 20 hours
Procedure, shortened: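 Living-cell ratio versus untreated control was read by Alamar Blue absorbance after about 6 h of dye incubation. Before that, Vero cells had received 25 μM test compound in 2% FBS-DMEM for 20 hours at 37 °C under 5% CO2.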

T1 sequence (P10210 1-247): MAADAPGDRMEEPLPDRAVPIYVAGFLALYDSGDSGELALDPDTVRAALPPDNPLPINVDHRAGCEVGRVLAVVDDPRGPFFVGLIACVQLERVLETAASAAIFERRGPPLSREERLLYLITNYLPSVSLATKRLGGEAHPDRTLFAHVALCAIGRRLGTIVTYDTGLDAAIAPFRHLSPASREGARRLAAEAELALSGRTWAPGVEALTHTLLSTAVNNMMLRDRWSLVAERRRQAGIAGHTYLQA

Row | SMILES | IC50 [1] [µM] | EC90 [2] [µM] | Cell viability (% of control) [3] [%]
1 | Cc1c(NC(=O)c2sc3ccccc3c2Cl)ccc2nc(NC(C)(C)C(=O)N(C)CCc3ccccn3)oc(=O)c12 [Compound No.178, 3-Chloro-benzo[b]thiophene-2-carboxylic acid (5-methyl-2-{1-methyl-1-[methyl-(2-pyridin-2-yl-ethyl)-carbamoyl]-ethylamino}-4-oxo-4H-benzo[d][1,3]oxazin-6-yl)-amide] | 0.9 | 5.8 | 28.1
2 | Cc1c(NC(=O)c2sccc2Cl)ccc2nc(NC(C)(C)C(=O)N(C)CCc3ccccn3)oc(=O)c12 [Compound No.179, 3-Chloro-thiophene-2-carboxylic acid (5-methyl-2-{1-methyl-1-[methyl-(2-pyridin-2-yl-ethyl)-carbamoyl]-ethylamino}-4-oxo-4H-benzo[d][1,3]oxazin-6-yl)-amide] | 1 | 6.6 | 61.7
3 | Cc1c(NC(=O)c2scc(S(=O)(=O)C(C)C)c2Cl)ccc2nc(NC(C)(C)C(=O)N(C)CCc3ccccn3)oc(=O)c12 [Compound No.180, 3-Chloro-4-(propane-2-sulfonyl)-thiophene-2-carboxylic acid (5-methyl-2-{1-methyl-1-[methyl-(2-pyridin-2-yl-ethyl)-carbamoyl]-ethylamino}-4-oxo-4H-benzo[d][1,3]oxazin-6-yl)-amide] | 1.9 | > 12.5 | 87.4
4 | Cc1c(NC(=O)c2cc(Cl)sc2Cl)ccc2nc(NC(C)(C)C(=O)N(C)CCc3ccccn3)oc(=O)c12 [Compound No.181, 2,5-Dichloro-thiophene-3-carboxylic acid (5-methyl-2-{1-methyl-1-[methyl-(2-pyridin-2-yl-ethyl)-carbamoyl]-ethylamino}-4-oxo-4H-benzo[d][1,3]oxazin-6-yl)-amide] | 1.8 | 10.9 | 44.3
5 | Cc1c(NC(=O)c2ccccc2OC(F)(F)F)ccc2nc(NC(C)(C)C(=O)N(C)CCc3ccccn3)oc(=O)c12 [Compound No.182, N-(5-Methyl-2-{1-methyl-1-[methyl-(2-pyridin-2-yl-ethyl)-carbamoyl]-ethylamino}-4-oxo-4H-benzo[d][1,3]oxazin-6-yl)-2-trifluoromethoxy-benzamide] | 4.9 | > 12.5 | 95.2
6 | Cc1c(NC(=O)c2cccc(C(Cl)Cl)c2)ccc2nc(NC(C)(C)C(=O)N(C)CCc3ccccn3)oc(=O)c12 [Compound No.183, 3-Dichloromethyl-N-(5-methyl-2-{1-methyl-1-[methyl-(2-pyridin-2-yl-ethyl)-carbamoyl]-ethylamino}-4-oxo-4H-benzo[d][1,3]oxazin-6-yl)-benzamide] | 1.3 | > 12.5 | 101.0
7 | Cc1c(NC(=O)COCc2ccccc2)ccc2nc(NC(C)(C)C(=O)N(C)CCc3ccccn3)oc(=O)c12 [Compound No.184, 2-[6-(2-Benzyloxy-acetylamino)-5-methyl-4-oxo-4H-benzo[d][1,3]oxazin-2-ylamino]-2,N-dimethyl-N-(2-pyridin-2-yl-ethyl)-propionamide] | 2.1 | 12.1 | 93.1
8 | CCCCCc1ccc(C(=O)Nc2ccc3nc(NC(C)(C)C(=O)N(C)CCc4ccccn4)oc(=O)c3c2C)cc1 [Compound No.185, N-(5-Methyl-2-{1-methyl-1-[methyl-(2-pyridin-2-yl-ethyl)-carbamoyl]-ethylamino}-4-oxo-4H-benzo[d][1,3]oxazin-6-yl)-4-pentyl-benzamide] | 7 | 3.5 | 29.0
9 | Cc1c(NC(=O)c2ccccc2COC(=O)c2ccccc2)ccc2nc(NC(C)(C)C(=O)N(C)CCc3ccccn3)oc(=O)c12 [Compound No.186, Benzoic acid 2-(5-methyl-2-{1-methyl-1-[methyl-(2-pyridin-2-yl-ethyl)-carbamoyl]-ethylamino}-4-oxo-4H-benzo[d][1,3]oxazin-6-ylcarbamoyl)-benzyl ester] | 1 | 3.5 | 18.1
10 | CCc1ccc(C(=O)Nc2ccc3nc(NC(C)(C)C(=O)N(C)CCc4ccccn4)oc(=O)c3c2C)cc1 [Compound No.187, 4-Ethyl-N-(5-methyl-2-{1-methyl-1-[methyl-(2-pyridin-2-yl-ethyl)-carbamoyl]-ethylamino}-4-oxo-4H-benzo[d][1,3]oxazin-6-yl)-benzamide] | 1.1 | 4.5 | 65.8
11 | Cc1c(NC(=O)C2CCCC2)ccc2nc(NC(C)(C)C(=O)N(C)CCc3ccccn3)oc(=O)c12 [Compound No.188, Cyclopentanecarboxylic acid (5-methyl-2-{1-methyl-1-[methyl-(2-pyridin-2-yl-ethyl)-carbamoyl]-ethylamino}-4-oxo-4H-benzo[d][1,3]oxazin-6-yl)-amide] | 1.4 | > 12.5 | 91.7
12 | Cc1c(NC(=O)CCl)ccc2nc(NC(C)(C)C(=O)N(C)CCc3ccccn3)oc(=O)c12 [Compound No.189, 2-[6-(2-Chloro-acetylamino)-5-methyl-4-oxo-4H-benzo[d][1,3]oxazin-2-ylamino]-2,N-dimethyl-N-(2-pyridin-2-yl-ethyl)-propionamide] | 2 | > 12.5 | 41.0
13 | Cc1c(NC(=O)c2cccc3ccccc23)ccc2nc(NC(C)(C)C(=O)N(C)CCc3ccccn3)oc(=O)c12 [Compound No.190, Naphthalene-1-carboxylic acid (5-methyl-2-{1-methyl-1-[methyl-(2-pyridin-2-yl-ethyl)-carbamoyl]-ethylamino}-4-oxo-4H-benzo[d][1,3]oxazin-6-yl)-amide] | 1.3 | 12.4 | 74.5
14 | CC(=O)OC(C(=O)Nc1ccc2nc(NC(C)(C)C(=O)N(C)CCc3ccccn3)oc(=O)c2c1C)c1ccccc1 (stereo not drawn) [Compound No.192, Acetic acid (5-methyl-2-{1-methyl-1-[methyl-(2-pyridin-2-yl-ethyl)-carbamoyl]-ethylamino}-4-oxo-4H-benzo[d][1,3]oxazin-6-ylcarbamoyl)-phenyl-methyl ester] | 7.2 | > 12.5 | 93.9
15 | Cc1c(NC(=O)c2ccc3c(c2)OCO3)ccc2nc(NC(C)(C)C(=O)N(C)CCc3ccccn3)oc(=O)c12 [Compound No.193, Benzo[1,3]dioxol-5-carboxylic acid (5-methyl-2-{1-methyl-1-[methyl-(2-pyridin-2-yl-ethyl)-carbamoyl]-ethylamino}-4-oxo-4H-benzo[d][1,3]oxazin-6-yl)-amide] | 3.7 | ≥ 12.5 | 67.0
16 | Cc1c(NC(=O)c2ccc3ccccc3c2)ccc2nc(NC(C)(C)C(=O)N(C)CCc3ccccn3)oc(=O)c12 [Compound No.194, Naphthalene-2-carboxylic acid (5-methyl-2-{1-methyl-1-[methyl-(2-pyridin-2-yl-ethyl)-carbamoyl]-ethylamino}-4-oxo-4H-benzo[d][1,3]oxazin-6-yl)-amide] | 6.7 | 11.8 | 71.8
17 | Cc1c(NC(=O)C(C)C)ccc2nc(NC(C)(C)C(=O)N(C)CCc3ccccn3)oc(=O)c12 [Compound No.195, 2-(6-Isobutyrylamino-5-methyl-4-oxo-4H-benzo[d][1,3]oxazin-2-ylamino)-2,N-dimethyl-N-(2-pyridin-2-yl-ethyl)-propionamide] | 2.1 | ≥ 12.5 | 99.7
18 | CCCCCCCC(=O)Nc1ccc2nc(NC(C)(C)C(=O)N(C)CCc3ccccn3)oc(=O)c2c1C [Compound No.196, Octanoic acid (5-methyl-2-{1-methyl-1-[methyl-(2-pyridin-2-yl-ethyl)-carbamoyl]-ethylamino}-4-oxo-4H-benzo[d][1,3]oxazin-6-yl)-amide] | 0.8 | 11.5 | 86.5
19 | Cc1c(NC(=O)C2CCC2)ccc2nc(NC(C)(C)C(=O)N(C)CCc3ccccn3)oc(=O)c12 [Compound No.198, Cyclobutanecarboxylic acid (5-methyl-2-{1-methyl-1-[methyl-(2-pyridin-2-yl-ethyl)-carbamoyl]-ethylamino}-4-oxo-4H-benzo[d][1,3]oxazin-6-yl)-amide] | 3.6 | ≥ 12.5 | 99.2
20 | Cc1c(NC(=O)c2cccc(Br)c2)ccc2nc(NC(C)(C)C(=O)N(C)CCc3ccccn3)oc(=O)c12 [Compound No.200, 3-Bromo-N-(5-methyl-2-{1-methyl-1-[methyl-(2-pyridin-2-yl-ethyl)-carbamoyl]-ethylamino}-4-oxo-4H-benzo[d][1,3]oxazin-6-yl)-benzamide] | 1.6 | 3.2 | 21.5
21 | Cc1c(NC(=O)CCCNC(=O)c2ccccn2)ccc2nc(NC(C)(C)C(=O)N(C)CCc3ccccn3)oc(=O)c12 [Compound No.221, Pyridine-2-carboxylic acid [3-(5-methyl-2-{1-methyl-1-[methyl-(2-pyridin-2-yl-ethyl)-carbamoyl]-ethylamino}-4-oxo-4H-benzo[d][1,3]oxazin-6-ylcarbamoyl)-propyl]-amide] | 0.7 | > 12.5 | 105.3
